Here are results for six molecules from patent US8557795B2, “Composition containing Chamaecyparis obtusa polysaccharides to be externally applied to the skin” (Amorepacific Corporation, priority 2009, dated 2013).

For assay [1], the system named is C57BL/6 mouse melanocytes (Mel-Ab cells). The experiment in a line: Melanin production inhibitory effect using mouse melanocytes. In kind it is cell-based. The note with it: 72 h, 3 days. On the procedure: Mouse melanocytes were used to examine the melanin production inhibitory effect of the Chamaecyparis obtusa polysaccharide of the present invention. First, C57BL/6 mouse melanocytes (Mel-Ab cells) (Dooley, T. P. et al, Skin pharmacol, 7, pp 188-200) were cultured in DMEM (Dulbeccos modified Eagles media), containing 10% fetal bovine serum, 100 nM 2-O-tetradecanoyphorbol-13-acetate and 1 nM cholera toxin, in conditions of 37° C. and 5% CO2. The cultured Mel-Ab cells were detached with 0.25% trypsin-EDTA and cultured in a 24-well culture plate at a concentration of 10^5 cells/well. Then, from 2 days of culture, each of 10 ppm, 50 ppm and 100 ppm of the Chamaecyparis obtusa polysaccharide was continuously added thereto and cultured for 3 days. Herein, arbutin was used as a positive control. Then, the media were removed, and the cells were washed with PBS and lysed with 1N sodium hydroxide. The lysed cells were measured for absorbance at 400 nm, and based on the measured absorbance, the inhibition (%) of melanin production was calculated according to the following equation 2. Inhibition (%) of melanin production=100−(absorbance of each test material/absorbance of control×100) [Equation 2]

For the next assay, the system named is human keratinocytes. The experiment in a line: Induction of differentiation of human keratinocytes (cornified envelop amount). In kind it is cell-based. The note with it: Ca^2+ 1.2 mM (positive control); relative to 100 for low calcium (0.03 mM) control. On the procedure:
The effect of the Chamaecyparis obtusa polysaccharide of the present invention on the promotion of cell differentiation was examined by measuring the amount of CE (cornified envelop) produced during differentiation of keratinocytes and a human keratinocyte cell line (HaCaT).
Primarily cultured human keratinocytes were placed in a culture flask and allowed to adhere to the bottom of the flask, and then calcium and the Chamaecyparis obtusa polysaccharide were added to the culture media at varying concentrations. The cells were cultured for 5 days to a confluency of about 70-80%. The cultured cells were harvested and washed with PBS (phosphate buffered saline), and then 1 ml of 10 mM Tris-HCl buffer (pH 7.4), containing 2% SDS (sodium dodecyl sulfate) and 20 mM DTT (dithiothreitol), was added to the cells. The cell solution was sonicated, boiled and centrifuged, and the resulting precipitate was suspended in 1 ml of PBS and measured for absorbance at 340 nm. Meanwhile, a portion of the solution after the sonication was taken and measured for its protein content, and the measured value was used as a standard for evaluating the degree of cell differentiation. […] Each of the measurement values was calculated relative to 100 for the negative control (low calcium concentration), and the results of the calculation are shown in Table 6 below.

In another assay the test system is transglutaminase. The assay is described as follows: Expression of transglutaminase in human keratinocytes. In kind it is cell-based. The note with it: Ca^2+ 1.2 mM (positive control); relative to 100 for low calcium (0.03 mM) control. On the procedure:
Human skin cells were placed in a 96-well plate at a concentration of 5×10^4 cells/well and attached to the plate for 24 hours. The attached skin cells were treated with the test material, and after 2 days, the medium was removed, and the cells were stored in a refrigerator at […]. The cells were frozen and thawed twice, disrupted and treated with acetone:ethanol (1:1, v/v), stored at −20° C. The treated cells were left to stand at 4° C. for 30 minutes to immobilize the cells. Then, the cells were left to stand at room temperature to evaporate the organic solvent and were blocked with 1% bovine serum albumin. The blocked cells were treated with transglutaminase antibody (primary antibody) and HRP anti-mouse antibody (secondary antibody), and the color development of the cells was carried out by the addition of OPD (o-phenyldiamine). The expression level of transglutaminase in the cells was measured by measuring the absorbance at 490 nm, and the correction was carried out by measuring the background at 630 nm. A low calcium (0.03 mM)-treated group and a high calcium (1.2 mM)-treated group were used as a negative control group and a positive control group, respectively. Each of the measurement values was calculated relative to 100 for the negative control (low calcium concentration), and the results of the calculation are shown in Table 7 below.

In a further assay the test system is human skin. The assay is described as follows: Whitening effect on UVB-darkened human skin (colorimeter). In kind it is in vivo. The note with it: UVB-darkened upper arm; 10 weeks of application; solvent control 0.51 ± 0.13. On the procedure:
In order to examine the whitening effect of the Chamaecyparis obtusa polysaccharide of the present invention on the human skin, the following test was carried out. First, on 12 healthy men as subjects, a 1.5-cm perforated opaque tape was attached to the upper arm portion of the subjects, and then the attached portion was radiated with UVB at a dose about 1.5-2 times the minimal erythema dose of each subject to induce skin darkening.
The color of the skin was measured with a colorimeter CR2002 (Japan, Minolta). Then, the difference (ΔL*) in skin color between the time point of initiation of application and the time point of completion of application (after 10 weeks) of each test material was calculated according to the following equation 3, and the results of the calculation are shown in Table 5 below.
Meanwhile, the skin whitening effect is evaluated by measuring the ΔL* value between the sample-applied portion and the control portion. […] Difference (ΔL*) skin color=L*value at the time of completion of application−L*value at the time of initiation of application [Formula 3]

The subject of assay [2] is TPA-induced mouse ear inflammation. The experiment in a line: TPA-induced mouse ear inflammation model. In kind it is in vivo, ICR mice. The note with it: 24 hours after TPA, polysaccharide 0.5% in 80% ethanol, indomethacin 0.5 mg/ear. On the procedure:
The tetradecanoyl phorbol acetate (TPA)-induced mouse ear inflammation model is an experimental method which is widely used to test the mechanism of action of inflammatory responses and the effect of inhibitors (De Young L M et al., Agents and Actions, 26; 335-341 (1989)). In order to confirm the inflammation inhibitory effect of the Chamaecyparis obtusa polysaccharide, 8-week-old male ICR mice (8 animals per group) were prepared. The test group was treated with TPA and applied with a solution of the Chamaecyparis obtusa polysaccharide dispersed in a 80% ethanol aqueous solution, the untreated group was applied with a 80% ethanol aqueous solution alone without treatment with TPA, the negative control group was treated with TPA and applied with a 80% ethanol aqueous solution alone, and the positive control group was treated with TPA and applied with 0.5 mg of indomethacine (Sigma, USA) in place of the Chamaecyparis obtusa polysaccharide. […] The mice of the untreated group, the negative control group and the positive control group were also treated as described above. At 24 hours after application of TPA, the mice were euthanized by cervical dislocation, and the left ear was sampled in a given area, and the weight thereof was measured. […] The inhibition (%) is calculated according to the following equation 4. […]

Assay [3] concerns MMP-1 (matrix metalloproteinase I). The assay is described as follows: Inhibition of UV-B-induced MMP-1 biosynthesis in human normal fibroblasts (ELISA). In kind it is cell-based. The note with it: irradiated with UV-B 40 mJ/cm^2; 10 μM; 2 days; non-irradiated control 100, UV alone 152. On the procedure: Human normal fibroblasts were cultured in a 12-well culture plate at a concentration of 10^5 cells/well, and then irradiated with 40 mJ/cm^2 of UV-B, after which the medium was replaced with a medium containing each of 1 ppm, 10 ppm and 50 ppm of the Chamaecyparis obtusa polysaccharide obtained in Preparation Example 1. At 2 days of culture, the cells were harvested, and the amount of MMP-1 (matrix metalloproteinase I) produced in the cells was measured by an ELISA assay. As a positive control, retinoic acid (RA, Sigma, USA) was used. Each of the measurement values was calculated relative to […] for a control containing no Chamaecyparis obtusa polysaccharide and which was not irradiated with UV-B. The results of the calculation are shown in Table 2 below.
A general note: In an ELISA, binding on a coated surface is turned into a signal by an enzyme label.

The next assay relates to type I procollagen. The experiment in a line: Type I procollagen assay (ELISA) in human normal fibroblasts. The note with it: 10 ng/Ml; positive control set to 100. In kind it is cell-based. On the procedure: Human normal fibroblasts were cultured in a 12-well culture plate at a concentration of 10^5 cells/well, and then the medium was replaced with each of media containing 1 ppm, 10 ppm and 50 ppm of the Chamaecyparis obtusa polysaccharide obtained in Preparation Example 1. As a positive control, TGF-β (Human Transforming Growth Factor-β1, Roche Co.) was used. At 3 days of culture, the cells were harvested, and the amount of type I procollagen produced in the cells was measured by an ELISA assay. Each of the measurement values was calculated relative to 0 for a control containing no Chamaecyparis obtusa polysaccharide and 100 for the positive control, and the results of the calculation are shown in Table 1 below.

Take `OC[C@H]1O[C@@H](Oc2ccc(O)cc2)[C@H](O)[C@@H](O)[C@@H]1O` [Arbutin, arbutin]: in assay [1], the inhibition (in general, the percentage by which the read-out fell short of the control) at 100 ppm was determined as 52%.
`[Ca+2]` [Ca^2+, calcium]: the “Differentiation (%) of keratinocytes” value in the assay with human keratinocytes was determined as 215%. Also, the “Expression (%) of transglutaminase” value in the assay with transglutaminase is 138%.
Regarding `Oc1ccc(O)cc1` [Hydroquinone, hydroquinone], in the assay with human skin, the “Difference (ΔL*) in skin color” value stood at 1.89 ± 0.15.
Regarding `COc1ccc2c(c1)c(CC(=O)O)c(C)n2C(=O)c1ccc(Cl)cc1` [Indomethacin, indomethacine], in assay [2], the “Inhibition (%) (mean)” value stood at 92%. Besides, the “Ear weight (mean ± SD)” value in assay [2] (untreated 6.64 ± 0.65, TPA alone 13.21 ± 2.49) is 7.20 ± 0.57.
Turning to `CC1=C(/C=C/C(C)=C/C=C/C(C)=C/C(=O)O)C(C)(C)CCC1` [RA, retinoic acid], the “MMP-1 biosynthesis (%)” value in assay [3] was 45%.
Turning to “TGF-β: Human Transforming Growth Factor-β1, Roche Co.; positive control”, the “Type I procollagen biosynthesis (%)” value with type I procollagen is listed as 100%.
